Experiment [1] addresses T1, VHL (Homo sapiens, UniProt P40337). As to the kind of experiment: Fluorescence polarization competition assay (HIF-1α peptide FP displacement). The following applies: for displacement of the fluorescent HIF-1α peptide: fluorescence polarization, result in words. A general note: Fluorescence polarisation rises when a labelled molecule tumbles more slowly, as on binding a larger partner.

The target in experiment [2] is T1, VHL. The experiment can be described thus: WaterLOGSY and saturation transfer difference (STD) NMR binding. Conditions: FIG. 2.
Setting [3] is: read-out: IC50 (μM) 1% DMSO, 1% DMSO.
[4] abbreviates: Table 1A, binding of initial ligands to VHL, average of three independent trials, each in triplicate.

Where two headings read alike, the source gives them in different places. Where only a bound is given, the exact number is not on record here.

Usually IC50 stands for the point on the concentration scale where inhibition reaches its midpoint. The compound `Cc1cc(CC(=O)N2C[C@H](O)C[C@H]2C(=O)NCc2c[nH]c3ccccc23)on1` [VL109] came in with an IC50 in experiment [1] (IC50 (μM) 10% DMSO, 10% DMSO) of 349 µM.

In the case of `Cc1cc(CC(=O)N2C[C@H](O)C[C@H]2C(=O)NCc2ccc(Cl)cc2Cl)on1` [VL085], the half-maximal inhibitory concentration (IC50) in experiment [1] (IC50 (μM) 10% DMSO, 10% DMSO) was found to be 27.1 µM.

`N#Cc1ccc(CC(=O)N2C[C@H](O)C[C@H]2C(=O)NCc2ccc(Cl)cc2)cc1` [VL056] came in with an IC50 in experiment [1] (IC50 (μM) 10% DMSO, 10% DMSO) of 939 µM.

The compound `Cc1cc(CC(=O)N2C[C@H](O)C[C@H]2C(=O)NCc2ccccc2Cl)on1` [VL028] yielded an IC50 in experiment [1] (IC50 (μM) 10% DMSO, 10% DMSO) of 210 µM.

Compound `O=C(NCc1ccc(Cl)cc1)[C@@H]1C[C@@H](O)CN1C(=O)c1cc(C2CC2)on1` [VL061] displayed a 50% inhibitory concentration (IC50) in experiment [1] (IC50 (μM) 10% DMSO, 10% DMSO) of 419 µM.

On to `CC(C)[Si](c1cn(CC(=O)N2C[C@H](O)C[C@H]2C(=O)NCc2ccc(-c3ccccc3)cc2)nn1)(C(C)C)C(C)C` [VL135], for which the “IC50 (μM) 10% DMSO” value in experiment [1] (10% DMSO) is on record as “Inactive”. The compound further came in with an IC50 in experiment [1] (IC50 (μM) 1% DMSO, 1% DMSO) above 1000 µM.

For the compound `O=C(NCc1ccc(Cl)cc1)[C@@H]1C[C@@H](O)CN1C(=O)c1ccccn1` [VL098], the half-inhibitory concentration (IC50) in experiment [1] (IC50 (μM) 10% DMSO, 10% DMSO) was 244 µM.

In experiment [1] (IC50 (μM) 10% DMSO, 10% DMSO), `O=C(NCc1ccc(Cl)cc1)[C@@H]1C[C@@H](O)CN1C(=O)CCN1CCCCC1` [VL104] registered an IC50 above 1000 µM.

In the case of `Cc1cc(CC(=O)N2C[C@H](O)C[C@H]2C(=O)NCc2ccc(OC(F)(F)F)cc2)on1` [VL045], the IC50 in experiment [1] (IC50 (μM) 10% DMSO, 10% DMSO) amounted to 146 µM.

Compound `Cc1cc(CC(=O)N2C[C@H](O)C[C@H]2C(=O)NCc2ccc(C)o2)on1` [VL044] displayed a half-inhibitory concentration (IC50) in experiment [1] (IC50 (μM) 10% DMSO, 10% DMSO) of 286 µM.

For the compound `Cc1cc(CC(=O)N2C[C@H](O)C[C@H]2C(=O)NCc2ccc(C(=O)O)cc2)on1` [VL146], the IC50 in experiment [1] (IC50 (μM) 1% DMSO, 1% DMSO) is 196 µM; in experiment [1] (IC50 (μM) 10% DMSO, 10% DMSO) it was 129 µM.

`Cc1cc(CC(=O)N2C[C@H](O)C[C@H]2C(=O)NCc2ccc(-c3ccccc3)cc2)on1` [VL014] displayed an IC50 in experiment [1] (IC50 (μM) 10% DMSO, 10% DMSO) of 4.7 µM.

Compound `Cc1cc(CC(=O)N2C[C@H](O)C[C@H]2C(=O)NCc2ccc(N3CCCCC3)cc2)on1` [VL110] displayed an IC50 in experiment [1] (IC50 (μM) 10% DMSO, 10% DMSO) of 138 µM.

As to `O=C(O)[C@@H]1C[C@@H](O)CN1` [L-Hyp], the “binding to VHL by WaterLOGSY NMR spectroscopy” value in experiment [2] is given as “not”.

For the compound `O=C(NCc1ccc(Cl)cc1)[C@@H]1C[C@@H](O)CN1C(=O)c1cccc2cnccc12` [VL128], the IC50 in experiment [1] (IC50 (μM) 1% DMSO, 1% DMSO) was 224 µM; in experiment [1] (IC50 (μM) 10% DMSO, 10% DMSO), 57.9 µM.

For the compound `CS(=O)(=O)N1C[C@H](O)C[C@H]1C(=O)NCc1cccc(Cl)c1` [VL007], the “IC50 (μM) 10% DMSO” value in experiment [1] (10% DMSO) was “Inactive”.

Take `Cc1cc(CC(=O)N2C[C@H](O)C[C@H]2C(=O)NCc2ccccn2)on1` [VL019]: the 50% inhibitory concentration (IC50) in experiment [1] (IC50 (μM) 10% DMSO, 10% DMSO) is 451 µM.

In experiment [1] (IC50 (μM) 10% DMSO, 10% DMSO), `Cc1cc(CC(=O)N2C[C@H](O)C[C@H]2C(=O)NCc2ccc(Cl)cc2)on1` [VL021] displayed an IC50 of 36 µM.

Regarding `O=C(NCc1ccc(Cl)cc1)[C@@H]1C[C@@H](O)CN1C(=O)Cc1c[nH]cn1` [VL120], the IC50 in experiment [1] (IC50 (μM) 1% DMSO, 1% DMSO) was above 1000 µM; in experiment [1] (IC50 (μM) 10% DMSO, 10% DMSO), above 1000 µM.

Turning to `Cc1cc(CC(=O)N2C[C@H](O)C[C@H]2C(=O)NCc2ccc(-c3ccncc3)cc2)on1` [VL150], the IC50 in experiment [1] (IC50 (μM) 1% DMSO, 1% DMSO) came out at 41 µM; in experiment [1] (IC50 (μM) 10% DMSO, 10% DMSO), 16 µM.

As for `Cc1cc(CC(=O)N2C[C@H](O)C[C@H]2C(=O)NCc2ccc(-c3cscn3)cc2)on1` [VL154], the IC50 is 77 µM in experiment [1] (IC50 (μM) 1% DMSO, 1% DMSO) and 118 µM in experiment [1] (IC50 (μM) 10% DMSO, 10% DMSO).

For `O=C(NCc1ccc(Cl)cc1)[C@@H]1C[C@@H](O)CN1C(=O)c1ccc([N+](=O)[O-])cc1` [VL067], the IC50 in experiment [1] (IC50 (μM) 10% DMSO, 10% DMSO) was found to be 70.7 µM.

As to `Cc1cc(CC(=O)N2C[C@H](O)C[C@H]2C(=O)NCCc2ccc(O)cc2)on1` [VL002, (2S,4R)-4-hydroxy-N-(4-hydroxyphenethyl)-1-(2-(3-methylisoxazol-5-yl)acetyl)pyrrolidine-2-carboxamide], the IC50 in experiment [1] (IC50 (μM) 10% DMSO, 10% DMSO) amounted to 241 µM; in experiment [1] (setting [3]), 120 µM.

With `Cc1cc(CC(=O)N2C[C@H](O)C[C@H]2C(=O)NCc2ccc(C(=O)CC(C)C)cc2)on1` [VL090], in experiment [1] (IC50 (μM) 10% DMSO, 10% DMSO), the IC50 amounted to 45.2 µM.

`O=C(NCc1ccc(Cl)cc1)[C@@H]1C[C@@H](O)CN1C(=O)Cc1cccs1` [VL053] gave a 50% inhibitory concentration (IC50) in experiment [1] (IC50 (μM) 10% DMSO, 10% DMSO) above 1000 µM.

`O=C(NCc1ccc(Cl)cc1)[C@@H]1C[C@@H](O)CN1S(=O)(=O)c1cccc2cccnc12` [VL130]: the IC50 was above 1000 µM in experiment [1] (IC50 (μM) 1% DMSO, 1% DMSO) and above 1000 µM in experiment [1] (IC50 (μM) 10% DMSO, 10% DMSO).

Turning to `Cc1cc(CC(=O)N2C[C@H](O)C[C@H]2C(=O)NCc2ccc(-c3ccn[nH]3)cc2)on1` [VL160], the IC50 in experiment [1] (IC50 (μM) 1% DMSO, 1% DMSO) came out at 9 µM; in experiment [1] (IC50 (μM) 10% DMSO, 10% DMSO), 12.1 µM.

As for `Cc1cc(CC(=O)N2C[C@H](O)C[C@H]2C(=O)NCc2ccccc2)on1` [VL034], the half-maximal inhibitory concentration (IC50) in experiment [1] (setting [3]) was found to be 130 µM.

In the case of `Cc1cc(CC(=O)N2C[C@H](O)C[C@H]2C(=O)NCc2ccc([N+](=O)[O-])cc2)on1` [VL048], the 50% inhibitory concentration (IC50) in experiment [1] (IC50 (μM) 10% DMSO, 10% DMSO) was 24.8 µM.

In the case of `CC(=O)Nc1ccc(Br)cc1C(=O)N1C[C@H](O)C[C@H]1C(=O)NCc1ccc(Cl)cc1` [VL083], the IC50 in experiment [1] (IC50 (μM) 10% DMSO, 10% DMSO) was above 1000 µM.

Turning to `Cc1ccc(S(=O)(=O)N2C[C@H](O)C[C@H]2C(=O)NCCc2ccc(O)cc2)cc1` [VL003], the IC50 in experiment [1] (IC50 (μM) 10% DMSO, 10% DMSO) was above 1000 µM.

Compound `Cc1cc(CC(=O)N2C[C@H](O)C[C@H]2C(=O)NCCc2ccc(O)cc2)on1` [Compound 2] yielded an IC50 in experiment [1] (setting [4]) of 120 µM. Besides, the “displacement of the fluorescent HIF-1α peptide” value in experiment [1] is reported as “able to displace the fluorescent peptide albeit at high concentrations”.

Take `O=C(NCc1ccc(-c2ccccc2)cc1)[C@@H]1C[C@@H](O)CN1Cc1ccccc1Cl` [VL143]: the 50% inhibitory concentration (IC50) in experiment [1] (IC50 (μM) 1% DMSO, 1% DMSO) is above 1000 µM; in experiment [1] (IC50 (μM) 10% DMSO, 10% DMSO), above 1000 µM.

In the case of `Cc1cc(CC(=O)N2C[C@H](O)C[C@H]2C(=O)NCc2ccc3c(c2)OCO3)on1` [VL017], the IC50 in experiment [1] (IC50 (μM) 10% DMSO, 10% DMSO) is around 510 µM.

As to `COc1ccccc1N1CCN(C(=O)[C@@H]2C[C@@H](O)CN2C(=O)Cc2cc(C)no2)CC1` [VL043], the IC50 in experiment [1] (IC50 (μM) 10% DMSO, 10% DMSO) is above 1000 µM.

In the case of `O=C(NCc1ccc(Cl)cc1)[C@@H]1C[C@@H](O)CN1C(=O)c1cccc(Br)c1` [VL076], the IC50 in experiment [1] (IC50 (μM) 10% DMSO, 10% DMSO) turned out to be 19.6 µM.

As to `Cc1cc(CC(=O)N2C[C@H](O)C[C@H]2C(=O)NCc2ccc(-c3ocnc3C)cc2)on1` [VL117], the half-maximal inhibitory concentration (IC50) in experiment [1] (IC50 (μM) 1% DMSO, 1% DMSO) was 13 µM; in experiment [1] (IC50 (μM) 10% DMSO, 10% DMSO), 5 µM.

With `COCc1cn(CC(=O)N2C[C@H](O)C[C@H]2C(=O)NCc2ccc(-c3ccccc3)cc2)nn1` [VL137], the IC50 in experiment [1] (IC50 (μM) 1% DMSO, 1% DMSO) is 128 µM; in experiment [1] (IC50 (μM) 10% DMSO, 10% DMSO), 35.6 µM.

In turn, `Cc1cc(CC(=O)N2C[C@H](O)C[C@H]2C(=O)NCc2cccc(Cl)c2)on1` [Compound 1] gave an IC50 in experiment [1] (setting [4]) of 117 µM. Besides, the “displacement of the fluorescent HIF-1α peptide” value in experiment [1] was “able to displace the fluorescent peptide albeit at high concentrations”.
